Measured values reported in patent US20060115431A1, “Procedures of cellular labelling with paramagnetic complexes for mri applications” (Bracco Imaging S.p.A., priority 2002, published 2006).

Legend:
U937 monocytes = assay: Phagocytic uptake of Gd-1 particles on U937 monocytes differentiated with TPA; type: cell-based
Method: The phagocytic uptake of the Gd-1 particles was carried out on U937 monocytes previously treated for three days with TPA to induce cell differentiation. The size of the Gd-1 particles was determined by electron microscope observation and the measured diameter ranged from 0.5 to 10 μm. Most particles had diameter <10 μm, which is sufficiently small to allow the phagocytic process. The uptake was carried out at 37° C. and the cells were incubated with two different amounts of Gd-1 at subsequent times (1 to 12 hours). After incubation at 37° C. for several hours, the medium was removed and the cells were washed three times with 5 mL PBS. In these conditions, Gd-1 particles suspended in the medium are not solubilised; in fact, the relaxivity of the medium remains very close to that of pure water (0.45 s^−1). The amount of Gd(III) detected in the cells is directly proportional to incubation time and in 12 hours the saturation of the kinetic curve is not reached (FIG. 3). As expected, the amount of phagocyted Gd(III) is proportional to the amount of complex added to the culture medium at time zero. It is interesting to compare this behaviour with the water proton relaxation rate in the cytosolic extract. This was obtained by freezing three times the cells at −80° C. after completion of phagocytosis. […]

[1] = tested on: esterase from swine liver [EC3.1.1.1]; assay: In vitro evaluation of esterase activity on Gd-1 particles (turbidity, water proton relaxation rate R1); type: biochemical
Method: (§1) The activity of two different enzymes (esterase from swine liver [EC3.1.1.1] and lipase from Chromobacterium viscosum [EC 3.1.1.34]) was evaluated on Gd-1 particles.
(§2) This behaviour was confirmed by measurements of the water protons relaxation rate (R1) on a NMR spectrometer (Stelar Spinmaster) operating at 0.5T and 298K.
(§3) In the presence of the esterase (2 mg) R1 rapidly rises and after 2-3 hours reaches the value expected for a soluble Gd(III) complex resulting from the hydrolysis of the ester bonds of the Gd-1 complex. The differences in the two observed curves, and therefore the different reaction kinetics, can be ascribed to the different amounts of active units per mg of the two enzymes added to the Gd complex suspension.

[2] = target: lipase from Chromobacterium viscosum [EC 3.1.1.34] (Pseudarthrobacter phenanthrenivorans, UniProt P0DUB9); assay: In vitro evaluation of lipase activity on Gd-1 particles (turbidity, R1); type: biochemical; details: HEPES buffer 50 mM, pH=8, 310K
lipase from Chromobacterium viscosum [EC 3.1.1.34], sequence (P0DUB9 whole entry): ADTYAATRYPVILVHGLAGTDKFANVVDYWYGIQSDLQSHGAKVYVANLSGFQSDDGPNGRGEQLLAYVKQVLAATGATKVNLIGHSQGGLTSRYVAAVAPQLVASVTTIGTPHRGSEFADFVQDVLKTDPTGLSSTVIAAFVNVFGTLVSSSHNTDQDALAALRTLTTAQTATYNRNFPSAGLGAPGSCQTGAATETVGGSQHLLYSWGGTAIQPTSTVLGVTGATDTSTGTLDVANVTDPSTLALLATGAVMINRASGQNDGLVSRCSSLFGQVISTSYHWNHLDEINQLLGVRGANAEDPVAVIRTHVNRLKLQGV
Method: as §1, §2, §3

macrophages esterase = assay: Macrophage lysate esterase on Gd-1 (R1 increase); type: biochemical; details: about 4×10^6 macrophages lysed by sonication, about 1 mg Gd-1
Method: Afterwards, the macrophages esterase was tested. For this purpose, about 4×10^6 macrophages were subjected to lysis by sonication and about 1 mg Gd-1 was added to the lysate. The enzyme present in the cellular lysate rapidly cleaves the hydrophobic ester groups, thus releasing the soluble Gd complex. The formation of soluble Gd complex is well followed by the increase of water proton relaxation rate (FIG. 2). After about two hours the enzymatic reaction reaches the steady state.

[3] = tested on: U937 monocytes differentiated to macrophages; assay: Intracellular esterase activity on Gd-1 in intact cells; type: cell-based
Method: An experiment for evaluating the enzymatic activity inside intact cells was set up, using Gd-1 particles as probes. For this purpose, different capsules containing about 2×10^6 cells (U937 monocytes differentiated to macrophages as described above) were incubated with ca. 5 mg of Gd-1 particles suspended in 5 mL medium (RPMI) for four hours at 37° C. After this period the cells were washed three times with PBS, covered with further 5 ml RPMI and re-incubated for different times at 37° C. In this way it was possible to isolate the contribution deriving from the esterase-catalysed hydrolysis of Gd-1 particles for the time interval that […] the internalisation step. The proton relaxation rate was measured at successive time intervals (0.5, 1, 2 hours). After 4 hours incubation in the presence of Gd-1 particles the cells internalise about 60 nmol complex, but only 50% of the internalised particles is hydrolysed in this time and contributes to the total relaxivity. In fact, the relaxivity of the cytosolic extract is 2.5 when the cells are resuspended in a medium devoid of Gd-1 and raises to 3.7 in the following two hours of enzymatic hydrolysis. It can be therefore assumed that 80% of Gd-1 internalised particles have been solubilised by cellular esterases (FIG. 5).

neutrophiles = assay: Labelling of neutrophiles with sonicated Gd-1 particles; type: cell-based; details: ca. […]10^6 neutrophiles, 0.4 mg particles, 37° C.
Method: One of the applications for labelled cells deals with the identification of infection loci in patients affected by fever of unknown origin. This imply the labelling of Neutrophiles obtained from the standard procedures from a specimen of blood drawn from the patient. After labelling the neutrophiles have to be re-injected in the patient who is subjected to MRI examination.
The labelling of neutrophiles (ca. 2.5×10^6) has been carried out by incubating them (5 ml) in a medium containing 0.4 mg of particles of Gd-1 prepared according to example 5.
After 2.5 h of incubation at 37° C., the cells were harvested, whashed several times with PBS, then analyzed. The content of Gd per mg protein is 8.8×10^−8 moles, i.e. an amount that after the intracellular degradation of the particle, is well sufficient to allow the visualization of the labelled cells by MRI techniques.

U937 cells = assay: Internalization assay of sonicated Gd-1 particles with U937 cells endowed with macrophagic activity; type: cell-based; details: 0.2 mg Gd-1 in medium, ca. 4 hours incubation
Method: The particles obtained by the sonication procedure described in example 5 has been tested in an internalization assay with the U937 cells endowed with macrophagic activity. The incubation medium contains 0.2 mg of Gd-1 (total). After ca. 4 hours of incubation the amount of Gd internalized reached a maximum value of 2×10^−8 moles/mg of protein. This means that ca 10% is taken up by the cells. Such amount is well sufficient to allow the visualisation of these cells. Once the enzymatic degradation process proceeds the signal intensity progressively increases to reach a steady state which lasts for a time long enough for the type of applications of this protocol.

Structure (SMILES)	presence of the complex in the cells (relaxation rate of water protons in the cytosolic extract) (U937 monocytes; soluble complex incubated in the same conditions as Gd-1 particles)	turbidity of the suspension in the presence of the enzyme ([1]; HEPES buffer 50 mM, pH=8, 310K)	time for R1 to reach the value expected for a soluble Gd(III) complex ([1]; esterase 2 mg) [h]	water protons relaxation rate (R1) in the absence of enzyme ([1]; no enzyme, 0.5T, 298K, not different from pure water) [s⁻¹]	turbidity of the suspension in the presence of the enzyme [2]	time for the enzymatic reaction to reach the steady state (macrophages esterase)	relaxivity of the medium with suspended particles (U937 monocytes; culture medium, 37° C., particles not solubilised) [s⁻¹]	amount of complex internalised by the cells ([3]; about 2×10^6 cells, ca. 5 mg particles in 5 mL RPMI, 4 hours, 37° C.)	fraction of the internalised particles hydrolysed ([3]; after 4 hours incubation with particles) [%]	relaxivity of the cytosolic extract ([3]; after the following two hours of enzymatic hydrolysis)	fraction of internalised particles solubilised by cellular esterases ([3]; after two further hours of hydrolysis) [%]	relaxivity of the cytosolic extract ([3]; when cells are resuspended in a medium devoid of Gd-1)	content of Gd per mg protein (neutrophiles) [mol]	amount of Gd internalized (maximum value) (U937 cells)	fraction taken up by the cells (U937 cells) [%]
CC(O)CN1CCN(CC(=O)[O-])CCN(CC(=O)[O-])CCN(CC(=O)[O-])CC1.[Gd+3] (stereo not drawn) [Gd-HPDO3A, reference compound]	complete absence	–	–	–	–	–	–	–	–	–	–	–	–	–	–
CCCCCCCCCCCCCCCCCC(=O)OCCOCCNC(=O)CN(CCN(CCN(CC(=O)O)CC(=O)NCCOCCOC(=O)CCCCCCCCCCCCCCCCC)CC(=O)O)CC(=O)O [Gd-1]	–	progressive decrease in turbidity	2 to 3	0.38	progressive decrease in turbidity	about two	~0.45	about 60 nmol	50	3.7	80	2.5	8.8e-08	2×10^−8 moles/mg of protein	~10
